Columns and labels:
mice = assay: Acute oral toxicity (LD50) determined on mice; assay type: in vivo; conditions: oral administration
Excerpt: (§1) The N-carbamoylcysteine to be used in this invention is preferably N-carbamoyl-L-cysteine or N-carbamoyl-DL-cysteine from the viewpoint of practical usefulness but can be N-carbamoyl-D-cysteine. N-carbamoyl-L-cysteine can be prepared easily, for example, by reacting L-cysteine with potassium cyanate. Since it is possible to synthesize N-carbamoyl-DL-cysteine from an inexpensive industrial material, the compound can presumably be prepared more economically than N-carbamoyl-L-cysteine.

[1] = Acute oral toxicity (LD50) determined on mice; assay type: in vivo; conditions: mouse, in vivo, oral administration
Excerpt: as §1

[2] = background statement; cited from earlier work
[3] = assay type: physicochemical
Description: Eleven kinds of test solutions were prepared with use of L-cysteine and N-carbamoylcysteine in varying ratios as shown in Table 3 to test the solutions for storage stability. Basically these solutions have the following composition.
Each of the solutions was prepared by adding monoethanolamine (about 3 ml), L-cysteine, N-carbamoyl-L-cysteine and tetrasodium ethylenediaminetetraacetate to about 80 ml of purified water in the order mentioned with stirring, and adjusting the resulting solution to 100 ml with its pH adjusted to 9.1 with monoethanolamine. […] Test Solution A is a reference example.
The test solutions were prepared on the same day, placed into 200-ml colorless wide-mouthed reagent bottles respectively and allowed to stand at room temperature (20° to 26° C.) for 60 days with the mouths of the bottles left open. Consequently white powder of cystine separated out on the 9th day from Test Solution A containing L-cysteine alone, whereas Test Solutions B and C further containing N-carbamoyl-L-cysteine yielded white powder on the 15th day and 32nd day respectively. No powdery deposition was found in Test Solutions D to K even after the lapse of 60 days. […]

Solubility = assay type: physicochemical; conditions: at a pH of below 8.7

Row | Structure (SMILES) | toxicity (in words) (mice) | LD50 [1] [mg/kg] | stabilizing effect on cysteine (in words) [3] | also measured
1 | NC(=O)N[C@@H](CS)C(=O)O [N-carbamoyl-L-cysteine] | extremely low in toxicity | 13500 |  | 
2 | N[C@@H](CSSC[C@H](N)C(=O)O)C(=O)O [cystine] |  |  |  | solubility in water (in words) [2]: hardly soluble in water
3 | CC(=O)N[C@@H](CS)C(=O)O [N-acetylcysteine, N-acetyl-L-cysteine, reference compound] |  |  | adds to the stability of cysteine | 
4 | NC(=O)NC(CS)C(=O)O (racemic) [N-carbamoyl-DL-cysteine] | extremely low in toxicity | 13100 |  | 
5 | NC(=O)N[C@@H](CS)C(=O)O [N-carbamoylcysteine] |  |  | exceedingly superior | solubility (in words) (Solubility): not easily soluble

— patent US4272517A, “Permanent waving compositions” (Kanegafuchi Kagaku Kogyo Kabushiki Kaisha, priority 1978, dated 1981)
